# Source: US9206186B2, “2-phenoxy- and 2-phenylsulfonamide derivatives with CCR3 antagonistic activity for the treatment of inflammatory or immunological disorders” (AXIKIN PHARMACEUTICALS, INC., priority 2003, dated 2015)
# Counter-ions that a name gives are not always drawn.
# Target: T1, Human CCR3 (Homo sapiens, UniProt P51677)
# T1 construct: The cloned CCR3 cDNA was constructed with pcDNA3 vector and transfected into a K562 cell line; expressed in transfected cells
# T1 sequence (P51677 1-355): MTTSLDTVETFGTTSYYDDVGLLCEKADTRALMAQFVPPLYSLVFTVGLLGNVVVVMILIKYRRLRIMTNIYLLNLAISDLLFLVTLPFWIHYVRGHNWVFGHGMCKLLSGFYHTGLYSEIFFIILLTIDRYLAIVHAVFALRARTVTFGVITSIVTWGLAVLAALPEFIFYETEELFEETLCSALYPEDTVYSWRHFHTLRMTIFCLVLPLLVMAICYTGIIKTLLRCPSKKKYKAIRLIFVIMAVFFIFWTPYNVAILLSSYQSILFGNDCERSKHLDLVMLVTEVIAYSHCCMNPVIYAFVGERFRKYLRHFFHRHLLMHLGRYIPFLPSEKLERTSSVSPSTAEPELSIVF
# Experiment: Calcium mobilization assay (Ca2+), eotaxin-stimulated human CCR3-transformed K562 cells
# Assay type: cell-based
# Conditions: compounds of about 40 to 90% purity, read-out: Activity grade IC50
# Experimental: • Human CCR3-transformed K562 cells were used. The cloned CCR3 cDNA was constructed with pcDNA3 vector and transfected into a K562 cell line. The human CCR3-transformed K562 cells were maintained in RPMI-1640 (Cat.#22400-089, Life Technologies) supplemented with 10% FCS (Cat.#A-1115-L, Hyclone), 55 μM 2-mercaptoethanol (Cat.#21985-023, Life Technologies), 1 mM sodium pyruvate (Cat.#11360-070, Life Technologies), 100 units/ml of penicillin G and 100 μg/ml of streptomycin (Cat.#15140-122, Life Technologies), and 0.4 mg/ml of Geneticin (Cat.#10131-035, Life Technologies) (hereinafter called “culture medium”). Before the receptor binding assay, cells were pretreated with 5 mM sodium butyrate (Cat.#193-01522, Wako)-containing the culture medium (2×10^5 cells/ml) for 20-24 hours to increase the expression of CCR3. (2) Receptor Binding Assay • Butyrate-pretreated cells, suspended in binding buffer (25 mM HEPES pH 7.6, 1 mM CaCl2, 5 mM MgCl2, 0.5% BSA, 0.1% NaN3) at a cell density of 2×10^6 cells/ml, were added into 60 μl/well in the 96-well round bottom polypropylene plate (Cat.#3365, Costar). Compounds, diluted with the binding buffer (4-times higher concentration of the final concentration), were added into 30 μl/well in the polypropylene plate. [^125I]-labeled human eotaxin (Cat.#IM290, Amersham Pharmacia Biotech), diluted with the binding buffer at the concentration of 0.4 nM (final concentration; 0.1 nM), was added into 30 μl/well in the polypropylene plate. Total 120 μl/well of binding reaction mixture (60 μl/well of cell suspension, 30 μl/well of compound solution, and 30 μl/well of [^125I]-labeled eotaxin) were incubated in the polypropylene plate for 1 hour at room temperature after the incubation, 100 μl/well of the reaction mixture was transferred to a filtration plate (Cat.#MAFB-N0B, Millipore), and washed with the washing buffer (25 mM HEPES pH 7.6, 1 mM CaCl2, 5 mM MgCl2, 0.5% BSA, 0.1% NaN3, 0.5 M NaCl) twice. The 96-well filtration plate was pretreated with 100 μl/well of 0.5% polyethylenimine (Cat.#P-3143, Sigma) for 2-4 hours at room temperature and washed with the washing buffer twice before use. The non-specific binding was determined by parallel incubation in the presence of 500 nM of non-labeled eotaxin (Cat.#23209, Genzyme Techne). The radioactivities remained on the filter were measured by liquid scintillation counter (TopCount™, Packard) after an addition of 45 μl/well of scintillant (Microscint20, Cat.#6013621, Packard). The inhibition percent at each concentration of compound was calculated, and IC50 values were determined from the inhibition curve. [Determination of IC50 Values of Compounds in Calcium Mobilization Assay] (1) Cell • Human CCR3-transformed K562 cells were used. The human CCR3-transformed K562 cells were maintained in RPMI-1640 supplemented with 10% FCS, 55 μM 2-mercaptoethanol (Cat.#21985-023, Life Technologies), 1 mM sodium pyruvate, 100 units/ml of penicillin G and 100 μg/ml of streptomycin, and 0.4 mg/ml of Geneticin. Before the calcium mobilization assay, cells were pretreated with 5 mM sodium butyrate-containing the culture medium (2×10^5 cells/ml) for 20-24 hours to increase the expression of CCR3. (2) Calcium Mobilization Assay • Butyrate-pretreated cells were loaded with Fluo-3AM (Cat.#F-1242, Molecular Probes) in loading buffer (Hanks' solution Cat.#05906 Nissui, 20 mM HEPES pH 7.6, 0.1% BSA, 1 mM probenecid Cat.#P-8761 Sigma, 1 μM Fluo-3AM, 0.01% pluronic F-127 Cat.#P-6866 Molecular Probes) at a cell density of 1×10^7 cells/ml. Then, cells were washed with calcium assay buffer (Hanks' solution Cat.#05906 Nissui, 20 mM HEPES pH 7.6, 0.1% BSA, 1 mM Probenecid Cat.#P-8761 Sigma). The cell suspension (3.3×10^6 cells/ml) was added into 60 μl/well in the 96-well clear bottom black plate (Cat.#3904, Costar). Compounds, diluted (5-times concentration of the final concentration) with the calcium assay buffer, were added into 20 μl/well in the plate 10 minutes before assay. […]
row,Structure (SMILES),IC50
1,N#Cc1ccc(Oc2cc(Cl)cc(Cl)c2)c(S(=O)(=O)N2CC3CCN(Cc4ccccc4)C3C2)c1 (stereo not drawn) [Example 1-6],< 100 nM
2,COC(=O)[C@@H]1C[C@H](N2CCCC2)CN1S(=O)(=O)c1cc(C#N)ccc1Oc1cc(Cl)cc(Cl)c1 [Example 1-13],< 100 nM
3,N#Cc1ccc(Oc2cc(Cl)cc(Cl)c2)c(S(=O)(=O)N2CCCCC2)c1 [Example 1-5],> 500 nM
4,N#Cc1ccc(Oc2cc(Cl)cc(Cl)c2)c(S(=O)(=O)N2CCNC(CN3C(=O)CCC3=O)C2)c1 (stereo not drawn) [Example 1-43],< 100 nM
5,CS(=O)(=O)NCC1CN(S(=O)(=O)c2cc(C#N)ccc2Oc2cc(Cl)cc(Cl)c2)CCN1 (stereo not drawn) [Example 1-7],< 100 nM
6,"CN(C)CCN(CCN1C(=O)CCC1=O)S(=O)(=O)c1cc(C#N)ccc1Oc1cc(Cl)cc(Cl)c1 [Example 1-2, 5-cyano-2-(3,5-dichloro-phenoxy)-N-(2-dimethylamino-ethyl)-N-[2-(2,5-dioxo-pyrrolidin-1-yl)-ethyl]-benzenesulfonamide]",< 100 nM
7,N#Cc1ccc(Oc2cc(Cl)cc(Cl)c2)c(S(=O)(=O)N2CCCCC2CN2CCC(O)C2)c1 (stereo not drawn) [Example 1-35],< 100 nM
8,"N#Cc1ccc(Oc2cc(Cl)cc(Cl)c2)c(S(=O)(=O)N2CCN[C@@H](Cc3c[nH]c4ccccc34)C2)c1 [Example 1-3, 4-(3,5-dichloro-phenoxy)-3-[(3S)-(1H-indol-3-ylmethyl)-piperazine-1-sulfonyl]-benzonitrile]",< 100 nM
9,N#Cc1ccc(Oc2cc(Cl)cc(Cl)c2)c(S(=O)(=O)N(CCN2CCCC2)C2CCCC2)c1 [Example 1-42],< 100 nM
10,CC(=O)c1ccc(Oc2cc(Cl)cc(Cl)c2)c(S(=O)(=O)N2CCNCC2)c1 [Example 1-31],< 100 nM
11,CC(C)(O)[C@@H]1CCCN1C1CCN(S(=O)(=O)c2cc(C#N)ccc2Oc2cc(Cl)cc(Cl)c2)CC1 [Example 1-34],< 100 nM
12,N#Cc1ccc(Oc2cc(Cl)cc(Cl)c2)c(S(=O)(=O)N2CCNC(Cn3ncnn3)C2)c1 (stereo not drawn) [Example 1-36],< 100 nM
13,"N#Cc1ccc(Oc2cc(Cl)cc(Cl)c2)c(S(=O)(=O)C2CCNCC2)c1 [Example 2-1, 4-(3,5-Dichloro-phenoxy)-3-(piperidine-4-sulfonyl)-benzonitrile]",> 500 nM
14,N#Cc1ccc(Oc2cc(Cl)cc(Cl)c2)c(S(=O)(=O)N2CCC(N3C[C@H](O)[C@@H](O)C3)CC2)c1 [Example 1-11],< 100 nM

# Now from value to molecule:
row,IC50,Structure (SMILES)
1,< 100 nM,CCN1CCCN(S(=O)(=O)c2cc(C#N)ccc2Oc2cc(Cl)cc(Cl)c2)C(C(=O)OC)C1 (stereo not drawn) [Example 1-39]
2,100 to 500 nM,COC(=O)C1CN(S(=O)(=O)c2cc(C#N)ccc2Oc2cc(Cl)cc(Cl)c2)CCCN1 (stereo not drawn) [Example 1-12]
3,< 100 nM,COC(=O)C1CNCCCN1S(=O)(=O)c1cc(C#N)ccc1Oc1cc(Cl)cc(Cl)c1 (stereo not drawn) [Example 1-22]
4,< 100 nM,N#Cc1ccc(Oc2cc(Cl)cc(Cl)c2)c(S(=O)(=O)N[C@@H]2CN3CCC2CC3)c1 [Example 1-32]
5,< 100 nM,CC(=O)NCC1CN(S(=O)(=O)c2cc(C#N)ccc2Oc2cc(Cl)cc(Cl)c2)CCN1 (stereo not drawn) [Example 1-8]
6,100 to 500 nM,N#Cc1ccc(Oc2cc(Cl)cc(Cl)c2)c(S(=O)(=O)N2CCC(N3CCC[C@H]3C(=O)O)CC2)c1 [Example 1-33]
7,< 100 nM,CS(=O)(=O)NCC1CNCCCN1S(=O)(=O)c1cc(C#N)ccc1Oc1cc(Cl)cc(Cl)c1.Cl (stereo not drawn) [Example 1-29]
8,< 100 nM,CC(=O)NCC1CNCCN1S(=O)(=O)c1cc(C#N)ccc1Oc1cc(Cl)cc(Cl)c1 (stereo not drawn) [Example 1-10]
9,< 100 nM,N#Cc1ccc(Oc2cc(Cl)cc(Cl)c2)c(S(=O)(=O)N2CCC(N3CCC[C@H]3CO)CC2)c1 [Example 1-45]
10,< 100 nM,N#Cc1ccc(Oc2cc(Cl)cc(Cl)c2)c(S(=O)(=O)N2CCNC[C@@H]2Cc2c[nH]c3ccccc23)c1 [Example 1-26]
11,< 100 nM,N#Cc1ccc(Oc2cc(Cl)cc(Cl)c2)c(S(=O)(=O)N2CC[C@H](NCCO)C2)c1 [Example 1-16]
12,< 100 nM,"N#Cc1ccc(Oc2cc(Cl)cc(Cl)c2)c(S(=O)(=O)N2CCNCC2Cn2cncn2)c1 (stereo not drawn) [Example 1-4, 4-(3,5-dichlorophenoxy)-3-{[2-(1H-1,2,4-triazol-1-ylmethyl)-1-piperazinyl]sulfonyl}benzonitrile hydrochloride]"
13,< 100 nM,N#Cc1ccc(Oc2cc(Cl)cc(Cl)c2)c(S(=O)(=O)N2CCC[C@H]2CN2CCC[C@H]2CO)c1 [Example 1-46]
14,< 100 nM,N#Cc1ccc(Oc2cc(Cl)cc(Cl)c2)c(S(=O)(=O)N2CCNCC2CN2C(=O)CCC2=O)c1 (stereo not drawn) [Example 1-27]
15,< 100 nM,CS(=O)(=O)NCC1CNCCN1S(=O)(=O)c1cc(C#N)ccc1Oc1cc(Cl)cc(Cl)c1 (stereo not drawn) [Example 1-9]
16,< 100 nM,"N#Cc1ccc(Oc2cc(Cl)cc(Cl)c2)c(S(=O)(=O)N[C@H]2CN3CCC2CC3)c1 [Example 1-1, N—(R)-(+)-(1-aza-bicyclo[2.2.2]oct-3-yl)-5-cyano-2-(3,5-dichloro-phenoxy)-benzenesulfonamide]"
17,< 100 nM,CS(=O)(=O)NCC1CN(S(=O)(=O)c2cc(C#N)ccc2Oc2cc(Cl)cc(Cl)c2)CCCN1 (stereo not drawn) [Example 1-28]
18,< 100 nM,N#Cc1ccc(Oc2cc(Cl)cc(Cl)c2)c(S(=O)(=O)N2CCC(N3CCCC3)C(CN3C(=O)CCC3=O)C2)c1 (stereo not drawn) [Example 1-44]
19,< 100 nM,Cl.N#Cc1ccc(Oc2cc(Cl)cc(Cl)c2)c(S(=O)(=O)N2CCNC(Cn3cncn3)C2)c1 (stereo not drawn) [Example 1-37]
